≈ marks a conversion by molar mass, not a printed value. Blank lines part the entries; values can stand above or below the compound they belong to. Calls of active or inactive are those of the source. The rule behind the calls is not given here.
Tests used:
[1] = Permeability of the compound at pH 7.4 after 5 hrs using porcine polar brain lipid by PAMPA-BBB assay; format: ADME; settings: pig; for Papp at 5 h: PAMPA, pH 7.4, read-out: permeability
[2] = Metabolic stability in human liver microsomes at 50 uM at pH 7.4 using NADPH by LC-UV-MS method; format: ADME, Microsome; settings: read-out: Stability
SH-SY5Y [3] = test: Antiproliferative activity against human SH-SY5Y cells assessed as cell viability at 0.01 to 10 uM by XTT assay; format: functional, cell-based; settings: TDE = time-dependent effect
[4] = biological target: Tyrosine-protein kinase HCK (Homo sapiens, UniProt P08631); test: Inhibition human recombinant HcK using KVEKIGEGTYGVVYK peptide substrate in presence of [gamma-32P]-ATP
[5] = biological target: Proto-oncogene tyrosine-protein kinase Src (Homo sapiens, UniProt P12931); test: Inhibition human recombinant cSRC using KVEKIGEGTYGVVYK peptide substrate in presence of [gamma-32P]-ATP
[6] = biological target: T1, Tyrosine-protein kinase ABL1 (Homo sapiens, UniProt P00519); test: Inhibition human recombinant Abl using Abtide peptide substrate at 100 uM in presence of [gamma-32P]-ATP
[7] = biological target: Serine/threonine-protein kinase pim-1 (Homo sapiens, UniProt P11309); test: Inhibition human recombinant Pim1 using KKRNRLTLTV peptide substrate in presence of [gamma-32P]-ATP
HS27 = test: Antiproliferative activity against human HS27 cells assessed as retardation in proliferation rate at 10 uM after 72 hrs by XTT assay; format: cell-based; settings: hs27, 72 h
SH-SY5Y [8] = test: cells; settings: Homo sapiens, 72 h
[9] = Aqueous solubility of the compound after 24 to 36 hrs by LC-MS-MS assay; format: physicochemical; settings: buffer
SH-SY5Y [10] = test: Antiproliferative activity against human SH-SY5Y cells assessed as cell viability after 72 hrs by XTT assay
SH-SY5Y [11] = test: Antiproliferative activity against human SH-SY5Y cells assessed as growth reduction at 10 uM after 72 hrs; format: functional; design: scale not given: the % may be the effect or the level left
Focal adhesion kinase 1 = Focal adhesion kinase 1 (Homo sapiens, UniProt Q05397)
Description: Inhibition human recombinant FAK using Poly(Glu,Tyr) substrate in presence of [gamma-32P]-ATP

[12] = biological target: T2, Receptor-type tyrosine-protein kinase FLT3 (Homo sapiens, UniProt P36888)
T2 sequence (P36888 whole entry): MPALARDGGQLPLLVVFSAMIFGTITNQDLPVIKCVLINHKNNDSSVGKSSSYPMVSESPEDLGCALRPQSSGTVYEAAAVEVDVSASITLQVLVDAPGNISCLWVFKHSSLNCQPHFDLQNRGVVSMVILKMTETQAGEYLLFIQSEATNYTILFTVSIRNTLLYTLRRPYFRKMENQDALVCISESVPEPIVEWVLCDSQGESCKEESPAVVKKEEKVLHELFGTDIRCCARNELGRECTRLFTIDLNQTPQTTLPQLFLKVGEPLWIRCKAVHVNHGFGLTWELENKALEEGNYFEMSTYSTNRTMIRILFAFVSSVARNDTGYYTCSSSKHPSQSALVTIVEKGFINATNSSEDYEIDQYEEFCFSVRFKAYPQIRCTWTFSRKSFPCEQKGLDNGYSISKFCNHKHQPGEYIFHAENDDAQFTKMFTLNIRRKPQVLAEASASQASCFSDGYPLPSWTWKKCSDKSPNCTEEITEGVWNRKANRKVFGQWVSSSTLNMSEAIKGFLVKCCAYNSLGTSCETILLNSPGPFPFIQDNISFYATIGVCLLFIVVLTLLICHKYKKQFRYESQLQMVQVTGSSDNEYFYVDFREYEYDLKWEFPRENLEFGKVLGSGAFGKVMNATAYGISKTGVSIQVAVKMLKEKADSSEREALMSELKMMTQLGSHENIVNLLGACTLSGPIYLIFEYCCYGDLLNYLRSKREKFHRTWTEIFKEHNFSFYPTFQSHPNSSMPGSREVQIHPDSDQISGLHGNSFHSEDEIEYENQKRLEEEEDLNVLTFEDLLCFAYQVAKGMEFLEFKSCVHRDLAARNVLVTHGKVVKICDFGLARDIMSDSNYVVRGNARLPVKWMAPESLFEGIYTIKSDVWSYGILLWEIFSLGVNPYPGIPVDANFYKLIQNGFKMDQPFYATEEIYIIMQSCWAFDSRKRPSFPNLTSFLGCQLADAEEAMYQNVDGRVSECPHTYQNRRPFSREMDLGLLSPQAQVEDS
Description: Inhibition human recombinant FLT3 using Poly(Ala,Glu,Lys,Tyr)peptide substrate in presence of [gamma-32P]-ATP

[13] = biological target: T1, Tyrosine-protein kinase ABL1
Description: Inhibition human recombinant Abl using Abtide peptide substrate in presence of [gamma-32P]-ATP

inhibition [6]: inactive
Compound: CC(Cn1ncc2c(NCc3ccccc3)ncnc21)c1ccccc1 (centres undefined)

inhibition [6]: inactive
Compound: CC(Cn1ncc2c(Nc3cccc(Cl)c3)ncnc21)c1ccccc1 (centres undefined)

inhibition [6]: inactive
Compound: CC(Cn1ncc2c(NCc3ccc(F)cc3)ncnc21)c1ccccc1 (centres undefined)

inhibition [6]: inactive
Compound: CC(Cn1ncc2c(NCc3ccccc3F)ncnc21)c1ccccc1 (centres undefined)

inhibition [6]: inactive
Compound: CC(Cn1ncc2c(NCc3cccc(F)c3)ncnc21)c1ccccc1 (centres undefined)

More lines, now with the values behind:

Compound: CSc1nc(Nc2cccc(Cl)c2)c2cnn(CCc3ccccc3)c2n1
Papp at 5 h [1]: 3.43 ×10⁻⁶ cm/s
remaining at 50 µM [2]: 99%
Activity (SH-SY5Y [3]): tde
Ki [4]: 1720 nM
Ki [5]: 90 nM
inhibition [6]: inactive
Ki [7]: 6500 nM
Activity (HS27): Toxic

Compound: Clc1cccc(Nc2ncnc3c2cnn3CCc2ccccc2)c1
inhibition [6]: inactive

Compound: CSc1nc(Nc2cccc(Br)c2)c2cnn(CC(C)c3ccccc3)c2n1 (centres undefined)
permeability ([1]; pampa, pH 7.4, 5 h): 1.48 ×10⁻⁶ cm/s
IC50 (SH-SY5Y [8]): 800 nM
remaining at 50 µM [2]: 95%
Activity (SH-SY5Y [3]): tde
solubility [9]: < 0.01 µg/mL
Activity (HS27): Toxic
Activity (SH-SY5Y [10]): Dose-dependent effect

Compound: CSc1nc(Nc2cccc(Cl)c2)c2cnn(CC(Cl)c3ccccc3)c2n1 (centres undefined)
Papp at 5 h [1]: 5.66 ×10⁻⁶ cm/s
remaining at 50 µM [2]: 91%
Ki [5]: 700 nM
Activity (SH-SY5Y [11]): 75%
solubility [9]: 0.046 µg/mL (≈ 0.107 µM)

Compound: CSc1nc(NCc2ccccc2)c2cnn(CC(C)c3ccccc3)c2n1 (centres undefined)
inhibition [6]: inactive

Compound: CSc1nc(Nc2ccccc2)c2cnn(CC(C)c3ccccc3)c2n1 (centres undefined)
IC50 (SH-SY5Y [8]): 730 nM
Activity (SH-SY5Y [3]): tde
Ki [4]: 3870 nM
Ki (Focal adhesion kinase 1): Not Active
Ki [5]: 25 nM
inhibition [6]: inactive
Ki [7]: 11500 nM
Activity (HS27): Toxic
Ki [12]: Not Active

Compound: CC(C)(C)n1nc(-c2ccc(Cl)cc2)c2c(N)ncnc21
IC50 (SH-SY5Y [8]): 6100 nM

Compound: ClC(Cn1ncc2c(NCc3ccccc3)ncnc21)c1ccccc1 (centres undefined)
Ki [13]: 370 nM
Ki [5]: 3000 nM

Compound: CSc1nc(Nc2cccc(Cl)c2)c2cnn(CC(C)c3ccccc3)c2n1 (centres undefined)
IC50 (SH-SY5Y [8]): 330 nM
Activity (SH-SY5Y [3]): tde
Ki [4]: 5000 nM
Ki (Focal adhesion kinase 1): Not Active
Ki [5]: 25 nM
inhibition [6]: inactive
Ki [7]: 6600 nM
Activity (HS27): Toxic
Ki [12]: Not Active
Activity (SH-SY5Y [10]): Dose-dependent effect
